From ChEMBL document CHEMBL1131356, “New generation dopaminergic agents. 2. Discovery of 3-OH-phenoxyethylamine and 3-OH-N1-phenylpiperazine dopaminergic templates” (Bioorg Med Chem Lett, 1998)
pKi: −log10 of the molar value.

What was measured:
D(3) dopamine receptor = D(3) dopamine receptor (Homo sapiens, UniProt P35462); assay: biochemical
Description: Binding affinity towards human cloned dopamine (hD3) receptor expressed in CHO cells using [3H]spiperone as radioligand

D(4) dopamine receptor [1] = target: T1, D(4) dopamine receptor (Homo sapiens, UniProt P21917); assay: Binding affinity towards human cloned dopamine (hD4.4) receptor expressed in CHO cells using [3H]spiperone as radioligand; format: cell-based
T1 sequence (P21917 whole entry): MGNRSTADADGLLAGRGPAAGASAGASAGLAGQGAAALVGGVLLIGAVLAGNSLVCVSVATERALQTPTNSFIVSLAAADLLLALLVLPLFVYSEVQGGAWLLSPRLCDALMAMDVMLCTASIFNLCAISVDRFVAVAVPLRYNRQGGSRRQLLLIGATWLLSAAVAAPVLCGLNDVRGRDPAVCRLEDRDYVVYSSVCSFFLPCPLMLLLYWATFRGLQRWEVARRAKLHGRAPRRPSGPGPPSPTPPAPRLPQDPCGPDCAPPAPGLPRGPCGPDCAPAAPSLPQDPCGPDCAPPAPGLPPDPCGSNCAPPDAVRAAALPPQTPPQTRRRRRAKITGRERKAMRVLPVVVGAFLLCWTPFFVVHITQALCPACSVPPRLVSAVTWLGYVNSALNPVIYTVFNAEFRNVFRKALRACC

[2] = target: T2, Adrenergic receptor alpha-1 (Homo sapiens, UniProt P35348+P25100+P35368); assay: Binding affinity for Alpha-1 adrenergic receptor; format: protein assay
T2 sequence (P35348 whole entry): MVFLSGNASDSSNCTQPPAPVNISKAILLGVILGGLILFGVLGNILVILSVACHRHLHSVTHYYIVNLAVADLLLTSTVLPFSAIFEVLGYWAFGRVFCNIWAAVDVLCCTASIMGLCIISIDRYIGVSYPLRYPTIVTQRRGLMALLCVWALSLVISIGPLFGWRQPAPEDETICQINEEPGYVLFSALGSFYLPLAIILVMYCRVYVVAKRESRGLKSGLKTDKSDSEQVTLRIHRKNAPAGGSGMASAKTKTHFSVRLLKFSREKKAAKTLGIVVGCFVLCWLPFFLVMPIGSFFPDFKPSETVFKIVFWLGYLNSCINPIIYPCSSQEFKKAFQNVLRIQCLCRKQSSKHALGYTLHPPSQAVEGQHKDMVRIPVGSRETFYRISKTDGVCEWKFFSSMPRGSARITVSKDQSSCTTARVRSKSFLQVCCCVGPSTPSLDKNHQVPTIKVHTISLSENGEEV
T2 sequence (P25100 whole entry): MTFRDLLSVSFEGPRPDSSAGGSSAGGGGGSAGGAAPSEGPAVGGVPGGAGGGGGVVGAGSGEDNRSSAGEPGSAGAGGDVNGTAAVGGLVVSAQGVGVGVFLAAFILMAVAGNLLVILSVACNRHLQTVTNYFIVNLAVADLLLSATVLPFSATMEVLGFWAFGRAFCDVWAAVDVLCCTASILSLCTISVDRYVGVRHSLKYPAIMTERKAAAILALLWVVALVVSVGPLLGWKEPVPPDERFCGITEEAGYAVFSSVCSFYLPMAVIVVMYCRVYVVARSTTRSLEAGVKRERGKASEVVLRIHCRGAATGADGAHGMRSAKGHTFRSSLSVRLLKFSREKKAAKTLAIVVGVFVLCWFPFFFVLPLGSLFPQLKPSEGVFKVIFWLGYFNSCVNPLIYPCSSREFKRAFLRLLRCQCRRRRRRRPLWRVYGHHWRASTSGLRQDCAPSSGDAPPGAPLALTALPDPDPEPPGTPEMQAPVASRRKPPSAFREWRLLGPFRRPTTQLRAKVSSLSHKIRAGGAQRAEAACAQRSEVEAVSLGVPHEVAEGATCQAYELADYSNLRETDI
T2 sequence (P35368 whole entry): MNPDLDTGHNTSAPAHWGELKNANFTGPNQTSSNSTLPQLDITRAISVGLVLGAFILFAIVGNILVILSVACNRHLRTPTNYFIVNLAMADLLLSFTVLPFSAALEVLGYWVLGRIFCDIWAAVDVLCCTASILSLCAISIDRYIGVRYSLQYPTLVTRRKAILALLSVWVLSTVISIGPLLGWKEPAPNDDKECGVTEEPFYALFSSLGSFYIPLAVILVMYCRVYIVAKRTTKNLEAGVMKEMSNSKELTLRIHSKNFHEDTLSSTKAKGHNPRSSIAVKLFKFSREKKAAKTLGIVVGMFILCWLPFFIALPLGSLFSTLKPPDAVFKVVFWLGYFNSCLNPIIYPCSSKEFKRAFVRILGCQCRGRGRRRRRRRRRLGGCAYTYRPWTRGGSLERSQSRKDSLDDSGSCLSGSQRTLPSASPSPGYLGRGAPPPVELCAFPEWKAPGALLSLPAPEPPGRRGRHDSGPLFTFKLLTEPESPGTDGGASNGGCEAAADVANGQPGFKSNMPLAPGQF

D(2) dopamine receptor [3] = target: T3, D(2) dopamine receptor (Rattus norvegicus, UniProt P61169)
Description: Agonistic activity towards dopamine D2 receptor using radioligand [3H]quinpirole in rat striatal membranes

[4] = target: T4, 5-hydroxytryptamine receptor 1A (Mus musculus, UniProt Q64264); assay: Binding affinity for 5-hydroxytryptamine 1A receptor
T4 sequence (Q64264 whole entry): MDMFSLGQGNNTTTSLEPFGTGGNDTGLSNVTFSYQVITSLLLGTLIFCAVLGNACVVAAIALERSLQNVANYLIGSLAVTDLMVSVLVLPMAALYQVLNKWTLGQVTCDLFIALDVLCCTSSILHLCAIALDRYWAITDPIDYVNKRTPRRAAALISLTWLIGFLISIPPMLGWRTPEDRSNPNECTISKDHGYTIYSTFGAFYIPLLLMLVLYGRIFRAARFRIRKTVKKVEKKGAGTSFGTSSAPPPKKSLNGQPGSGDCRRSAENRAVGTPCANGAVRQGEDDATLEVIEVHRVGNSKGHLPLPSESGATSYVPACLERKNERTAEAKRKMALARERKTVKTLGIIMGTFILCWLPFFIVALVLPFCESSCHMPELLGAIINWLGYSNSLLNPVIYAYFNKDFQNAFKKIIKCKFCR

D(2) dopamine receptor [5] = target: D(2) dopamine receptor (Homo sapiens, UniProt P14416); assay: biochemical
Description: Binding affinity towards human cloned dopamine (hD2s) receptors expressed in CHO cell membranes using [3H]spiperone

Mus musculus = assay: Dose required to inhibit locomotor activity in mice when administered subcutaneously; format: functional; details: sc
D(2) dopamine receptor [6] = target: T3, D(2) dopamine receptor; remark: listed apart in the source
Description: Antagonistic activity towards dopamine D2 receptor using radioligand [3H]spiperone in rat striatal membranes

D(4) dopamine receptor [7] = target: T1, D(4) dopamine receptor; assay: Binding affinity towards human cloned Dopamine receptor D4.4 expressed in CHO cells using [3H]spiperone as radioligand; format: cell-based

Chain of D(3) dopamine receptor (P35462 whole entry): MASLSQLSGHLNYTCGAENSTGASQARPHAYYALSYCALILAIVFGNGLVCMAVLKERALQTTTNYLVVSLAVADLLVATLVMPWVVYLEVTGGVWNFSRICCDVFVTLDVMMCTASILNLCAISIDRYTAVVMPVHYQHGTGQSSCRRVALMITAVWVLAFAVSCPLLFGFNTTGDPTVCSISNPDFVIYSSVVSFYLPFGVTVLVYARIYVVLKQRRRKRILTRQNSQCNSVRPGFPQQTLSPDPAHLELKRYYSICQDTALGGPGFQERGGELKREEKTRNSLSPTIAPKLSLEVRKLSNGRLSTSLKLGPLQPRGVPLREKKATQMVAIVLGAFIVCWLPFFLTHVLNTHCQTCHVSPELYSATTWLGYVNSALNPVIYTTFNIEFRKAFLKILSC
Chain of D(2) dopamine receptor (Homo sapiens, UniProt P14416) (P14416 whole entry): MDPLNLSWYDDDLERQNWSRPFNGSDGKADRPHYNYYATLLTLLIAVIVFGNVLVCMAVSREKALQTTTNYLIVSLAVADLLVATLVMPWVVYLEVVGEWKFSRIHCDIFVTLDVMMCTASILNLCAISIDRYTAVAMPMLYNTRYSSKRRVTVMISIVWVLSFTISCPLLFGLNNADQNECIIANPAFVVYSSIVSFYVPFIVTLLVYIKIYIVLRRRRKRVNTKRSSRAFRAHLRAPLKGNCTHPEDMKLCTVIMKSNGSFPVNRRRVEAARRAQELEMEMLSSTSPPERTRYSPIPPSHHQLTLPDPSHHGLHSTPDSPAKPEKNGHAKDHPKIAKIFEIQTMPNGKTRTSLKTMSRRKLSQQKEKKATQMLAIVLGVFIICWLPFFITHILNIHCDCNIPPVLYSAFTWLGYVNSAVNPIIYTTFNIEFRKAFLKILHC
T3 sequence (P61169 whole entry): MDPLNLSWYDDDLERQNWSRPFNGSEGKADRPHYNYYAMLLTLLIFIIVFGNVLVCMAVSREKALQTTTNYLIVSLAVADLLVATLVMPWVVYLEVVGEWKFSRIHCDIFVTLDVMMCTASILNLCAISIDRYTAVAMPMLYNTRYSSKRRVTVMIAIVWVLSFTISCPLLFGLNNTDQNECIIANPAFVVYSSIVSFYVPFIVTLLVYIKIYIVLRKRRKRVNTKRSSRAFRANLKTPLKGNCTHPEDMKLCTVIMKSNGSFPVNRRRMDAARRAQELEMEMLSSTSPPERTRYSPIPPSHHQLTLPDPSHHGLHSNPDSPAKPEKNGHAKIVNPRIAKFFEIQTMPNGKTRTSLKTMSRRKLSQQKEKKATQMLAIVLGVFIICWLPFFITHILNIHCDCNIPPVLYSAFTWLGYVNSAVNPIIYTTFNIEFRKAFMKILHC

In the case of `Oc1cccc(OCCNCc2ccccc2)c1`, the pKi (D(3) dopamine receptor) was 7.96, the pKi (D(4) dopamine receptor [1]) was 7.09 and the Ki [2] was 5.291 µM. For the same molecule, the pKi (D(2) dopamine receptor [3]) was 8.44, the pKi [4] was 5.75 and the pKi (D(2) dopamine receptor [5]) was 7.12. The ED50 (Mus musculus) was 0.08 mg/kg and the pKi (D(2) dopamine receptor [6]) was 7.00.
For `c1ccc(CN2CCN(c3ccccc3)CC2)cc1`, the pKi (D(3) dopamine receptor) was less than 6.40, the pKi (D(2) dopamine receptor [3]) was 7.79 and the pKi (D(2) dopamine receptor [5]) was less than 6.52. It also gave a pKi (D(4) dopamine receptor [7]) of 6.57 and a pKi (D(2) dopamine receptor [6]) of 6.91.
`Nc1cc(OCCNCc2ccccc2)ccc1Cl` gave a pKi (D(3) dopamine receptor) of less than 6.00, a pKi (D(4) dopamine receptor [1]) of 7.57 and a pKi (D(2) dopamine receptor [3]) of 6.63. For the same molecule, the pKi (D(2) dopamine receptor [5]) was less than 6.00.
In the case of `CS(=O)(=O)Nc1cc(OCCNCc2ccccc2)ccc1F`, the pKi (D(3) dopamine receptor) was less than 5.30, the pKi (D(2) dopamine receptor [3]) was 8.10 and the pKi (D(2) dopamine receptor [5]) was less than 5.00. The pKi (D(2) dopamine receptor [6]) was 7.62.
`CS(=O)(=O)Nc1cc(OCCNCc2cccs2)ccc1Cl` showed a pKi (D(3) dopamine receptor) of 7.56, a pKi (D(4) dopamine receptor [1]) of 6.86 and a pKi (D(2) dopamine receptor [3]) of 8.59. It also gave a pKi (D(2) dopamine receptor [5]) of 8.05 and a pKi (D(2) dopamine receptor [6]) of 8.22.
In the case of `Oc1ccc(N2CCN(Cc3ccccc3)CC2)cc1`, the pKi (D(3) dopamine receptor) was less than 6.40, the pKi (D(2) dopamine receptor [3]) was 6.92 and the pKi (D(2) dopamine receptor [5]) was less than 6.52. For the same molecule, the pKi (D(4) dopamine receptor [7]) was 7.04.
Molecule `Oc1ccc(OCCNCc2ccccc2)cc1` has a pKi (D(3) dopamine receptor) of less than 5.30, a pKi (D(4) dopamine receptor [1]) of 6.56 and a pKi (D(2) dopamine receptor [3]) of 6.95. It also gave a pKi (D(2) dopamine receptor [5]) of less than 5.00.
With `CS(=O)(=O)Nc1cc(OCCNCc2cccs2)ccc1F` the pKi (D(3) dopamine receptor) was less than 6.40, the pKi (D(2) dopamine receptor [3]) was 7.71 and the pKi (D(2) dopamine receptor [5]) was less than 6.52. For the same molecule, the pKi (D(4) dopamine receptor [7]) was less than 6.40 and the pKi (D(2) dopamine receptor [6]) was 7.93.
In the case of `Oc1cccc(N2CCN(Cc3ccccc3)CC2)c1`, the pKi (D(3) dopamine receptor) was 7.54, the Ki [2] was greater than 1 µM and the pKi [4] was less than 6.00. For the same molecule, the ED50 (Mus musculus) was 1.4 mg/kg and the pKi (D(4) dopamine receptor [7]) was less than 6.40.
`c1ccc(CNCCOc2ccccc2)cc1` gave a pKi (D(3) dopamine receptor) of less than 6.40, a pKi (D(4) dopamine receptor [1]) of 7.03 and a pKi (D(2) dopamine receptor [3]) of 7.16. The pKi (D(2) dopamine receptor [5]) was less than 6.52 and the pKi (D(2) dopamine receptor [6]) was 6.62.
For `Oc1ccccc1OCCNCc1ccccc1`, the pKi (D(3) dopamine receptor) was 6.55, the pKi (D(4) dopamine receptor [1]) was 6.53 and the pKi (D(2) dopamine receptor [3]) was 8.02. It also gave a pKi (D(2) dopamine receptor [5]) of 6.34 and a pKi (D(2) dopamine receptor [6]) of 6.72.
`CS(=O)(=O)Nc1cccc(OCCNCc2ccccc2)c1` showed a pKi (D(3) dopamine receptor) of 7.37, a pKi (D(4) dopamine receptor [1]) of 6.30 and a pKi (D(2) dopamine receptor [3]) of 8.36. It also gave a pKi (D(2) dopamine receptor [5]) of 7.42 and a pKi (D(2) dopamine receptor [6]) of 7.53.
For `Oc1ccccc1N1CCN(Cc2ccccc2)CC1`, the pKi (D(3) dopamine receptor) was less than 6.40, the pKi (D(2) dopamine receptor [3]) was 7.19 and the pKi (D(2) dopamine receptor [5]) was less than 6.52. The pKi (D(4) dopamine receptor [7]) was less than 6.40 and the pKi (D(2) dopamine receptor [6]) was 6.93.
Work on `CS(=O)(=O)Nc1cc(OCCNCc2ccccc2)ccc1Cl` yielded a pKi (D(3) dopamine receptor) of 7.96, a pKi (D(2) dopamine receptor [3]) of 8.80 and a pKi (D(2) dopamine receptor [5]) of 7.12. It also gave a pKi (D(2) dopamine receptor [6]) of 8.52.
